According to article PMC12567515, “Assessment of Carrier-Free Metallacarboranes for Targeted Radiation Therapies PBFT and BNCT: Comparative Cellular Effects and Dosimetry Studies with [o-FESAN]^− in Breast Cancer Cells” (Pharmaceuticals, 2025):

Columns and labels:
[1] = system: MDA-MB-231 xenograft-bearing nude mice; assay: Biodistribution (boron by ICP-OES) in MDA-MB-231 xenograft model; assay type: in vivo, mouse; conditions: 7.5 mg B/kg i.v., 1 and 4 h post-injection
Procedure: The biodistribution of Na[o-FESAN] (7.5 mg B/kg, i.v.) was evaluated in an MDA-MB-231 breast cancer xenograft model, and the results at 1 and 4 h are shown in Figure 2.
All animal experiments were approved by the Animal Care and Use Committee of the Institute of Science Tokyo and performed in accordance with the Guidelines for the Care and Use of Laboratory Animals as stated by the Institute of Science Tokyo (Approval number “D2021007”). All animals were maintained under controlled conditions of temperature and humidity with ad libitum water and feeding. MDA-MB-231 tumor-bearing mice (Balb/cSlc-nu/nu, female, 5–6 weeks old, 14–20 g, Sankyo Labo Service Co., Ltd., Hamamatsu, Japan) were prepared by injecting subcutaneously (s.c.) a suspension of MDA-MB-231 cells (8.0 × 10^5 cells/mouse) directly into the right thigh. The mice were kept on a regular chow diet and water, and maintained under a 12 h light/dark cycle in an ambient atmosphere. When the tumor diameter became 5 to 7 mm, the mice were injected via the tail vein with 200 µL PBS solution of Na[o-FESAN] (7.5 mg B/kg). […] After filtering through a hydrophobic filter, boron concentration was measured by inductively coupled plasma optical emission spectroscopy (ICP-OES) using an iCAP 7400 Duo elemental analyzer (Thermo Fisher Scientific Inc., Waltham, MA, USA).

MDA-MB-231 cells [2] = assay: Viability and proliferation after thermal neutron irradiation (BNCT); assay type: cell-based, human
Procedure: (§1) For neutron irradiation, SKBR-3 and MDA-MB-231 cells were incubated with Na[o-FESAN] at 50 and 100 µM and were irradiated with thermal neutrons at the Triga Mark II nuclear reactor at the University of Pavia. […] Both surviving SKBR-3 and MDA-MB-231 cells that were treated with Na[o-FESAN] […] This clearly indicates the important contribution of neutron capture to induce a long-term cytotoxic effect. Another important point is that the toxic effect was observed using Na[o-FESAN] containing natural B. In fact, the amount of internalized B measured by ICP-MS after 24 h incubation with 50 or 100 µM Na[o-FESAN] contained only 19.9% of the active ^10B isotope. Assuming that in the case of epithelial tumors (with a diameter ranging from 15–20 µm), a density of ca. 10^8 cells for cm^3 is a reasonable number, [76] from the data obtained by ICP-MS analysis, it was possible to calculate the amount of ^10B internalized in cells expressed in ppm (µg/g).
(§2) SKBR-3 and MDA-MB-231 cells were seeded in 25 cm^2 flasks (12 flasks for each cell line) at a density of 6.5 × 10^5 cells. […]
(§3) Twenty-four hours after irradiation, cells were detached with 0.05% trypsin and 0.02% EDTA, and cell viability was evaluated using the trypan blue exclusion test and reported as the percentage of cells observed in treated and/or irradiated samples with respect to that observed in control cells. […] The cell growth was followed for 10 days, and at pre-determined times, the cells were washed with PBS, detached with 0.05% trypsin and 0.02% EDTA, and transferred into falcon tubes. Then, cells were sonicated for 30 s at 30% power in ice, and the total cell protein concentration (that is, proportional to the number of cells) from cell lysates was determined by the Bradford method, using bovine serum albumin as a standard. The cell growth rate was calculated as follows: [(number of cells(ti) − number of cells(t0))/number of cells(t0)] × 100 where (ti) is the number of cells measured at the various time intervals and (t0) is the number of cells at the starting point (t = 0) of the proliferation assay.

SKBR-3 cells [3] = assay: as above; assay type: cell-based, human; conditions: SKBR-3, 50 and 100 µM, 24 h, thermal neutrons 15 min at 30 kW, growth followed 10 days
Procedure: as §1, §2, §3

[4] = set-up: method as in PMID 36373493; conditions: cited from earlier work
MDA-MB-231 cells [5] = assay: Morphological analysis by TEM; assay type: cell-based, human; conditions: MDA-MB-231, 50 µM, 24 h
Procedure: Transmission electron microscopy (TEM) was used to assess the structural integrity of MDA-MB-231 cells and to examine the effects at the organelle level before and 2 h after irradiation with proton beams (2.0 MeV).
MDA-MB-231 cells were seeded into 6-well plates at approx. 70% confluence. After 24 h, cells were treated with Na[o-FESAN] at 50 µM for 24 h. After incubation, cells were irradiated with a proton beam as described above and processed for TEM analysis 2 h later, following a previously described method. Briefly, the preparation of the cells included several steps of fixation: primary fixation with 3% glutaraldehyde in 0.1 M sodium cacodylate buffer, pH 7.3; secondary fixation with 1% osmium tetroxide in 0.1 M sodium cacodylate buffer, pH 7.3 for 3 h; tertiary fixation and contrasting with 0.5% uranyl acetate in the same buffer for 1 h, dehydration with ethanol and resin (Epon-Araldite) (Merck, Darmstadt, Germany) infiltration and embedding. The stained cells were then photographed and studied using a JEOL 100-SX electron microscope JEOL, Tokyo, Japan.

MDA-MB-231 cells [6] = assay: Cytotoxicity, MTT assay before irradiation; assay type: cell-based, human; conditions: MDA-MB-231, 24 h treatment
Procedure: (§4) The cytotoxicity of Na[o-FESAN] in breast cancer cells was evaluated to help the selection of the work concentrations for the uptake and irradiation studies. Moreover, the general requirements of therapeutic drugs include, among others, low cytotoxicity and high tumor uptake.
(§5) Before the irradiation studies, the concentrations of Na[o-FESAN] were selected. SKBR-3 and MDA-MB-231 cells were counted with a Neubauer chamber using Trypan Blue exclusion and a Zeiss Primovert microscope, seeded in 96-well plates (1–2 × 10^4 cells/200 µL medium) and incubated at 37 °C for 24 h to adhere. Then, the medium was discarded, and cells were incubated with Na[o-FESAN] at serial concentrations in complete medium in the range 1–300 µM for 24 h. After incubation, the cellular viability was determined using the MTT assay as previously described.

SKBR-3 cells [7] = assay: Cytotoxicity, MTT assay before irradiation; assay type: cell-based, human; conditions: SKBR-3, 24 h treatment
Procedure: as §4, §5

MDA-MB-231 cells [8] = assay: Intracellular ROS (H2DCF-DA) after proton irradiation; assay type: cell-based, human; conditions: MDA-MB-231, 50 and 100 µM, 24 h, protons 0.235 Gy, up to 48 h post-irradiation
Procedure: (§6) In non-irradiated cells (with/without treatment), no appreciable ROS formation was observed.
(§7) Intracellular ROS levels were measured using the 2′,7′-dichlorodihydrofluorescein diacetate (H2DCF-DA) fluorescent probe as previously described. […] Then, the probe (10 µM) in colorless DMEM medium (FluoroBrite™ DMEM, Gibco®, Waltham, MA, USA) was incubated with the cells for an additional 30 min. at 37 °C. Later, the medium was removed and replaced by a fresh one. The fluorescence intensity was continuously measured up to 48 h with a Varioskan LUX scanning multimode reader (Thermo Fisher Scientific, Waltham, MA, USA). Results of fluorescence (mean ± SD) were expressed as the fold change in fluorescence levels compared with controls (non-irradiated treated cells).

SKBR-3 cells [9] = assay: as above; assay type: cell-based, human; conditions: SKBR-3, 50 and 100 µM, 24 h, protons 0.235 Gy, up to 48 h post-irradiation
Procedure: as §6, §7

[10] = set-up: method as in PMID 24737689, PMID 35470838; conditions: cited from earlier work

## [3,3′-Fe(1,2-C2B9H11)2]^− [Na[o-FESAN]]
[1]
  Clearance in blood and main organs (heart, liver, lung, kidney, spleen, muscle): slow
  Tumor uptake: remained relatively high
MDA-MB-231 cells [2]; MDA-MB-231, 50 and 100 µM, 24 h, thermal neutrons 15 min at 30 kW, growth followed 10 days
  Proliferation of surviving cells after neutron irradiation: marked inhibition of proliferation
MDA-MB-231 cells [2]; MDA-MB-231, 24 h post irradiation, trypan blue
  Number of viable cells after treatment and neutron irradiation vs non-treated irradiated cells: significantly different
SKBR-3 cells [3]
  Proliferation of surviving cells after neutron irradiation: marked inhibition of proliferation
[4]
  Stability in cellular medium: did not suffer degradation
MDA-MB-231 cells [5]
  Cell morphology (TEM), no irradiation: moderate amount of vacuolization
MDA-MB-231 cells [5]; proton beam 2.0 MeV
  Cell morphology (TEM), 2 h after proton irradiation: necrosis
MDA-MB-231 cells [6]
  IC50: 103 ± 24.9 µM
SKBR-3 cells [7]
  IC50: 83.5 ± 18.6 µM
MDA-MB-231 cells [8]
  ROS levels after proton irradiation vs non-irradiated controls: increased ROS levels in a dose-dependent manner
SKBR-3 cells [9]
  ROS levels after proton irradiation vs non-irradiated controls: increased ROS levels in a dose-dependent manner
[10]
  Solubility in water: approx. 1 M
